{"source": "PubChem BioAssay AID1259407", "about": "(Chemical Carcinogenesis Research Information System (CCRIS), 2018)", "tested_on": "CCRIS mutagenicity, Ames/micronucleus/aberration tests", "test": "CCRIS mutagenicity studies", "note": "Active and inactive are the calls of the source. The rule behind the calls is not given here.", "data": [{"smiles": "S=c1nc[nH]c2nc[nH]c12", "values": [{"measurement": "mutagenic call", "setting": "End Point: IN VITRO MICRONUCLEUS, Test System: CHL/IU CELLS, Metabolic Activation: NONE", "result": "active; positive"}, {"measurement": "mutagenic call", "setting": "End Point: IN VITRO MICRONUCLEUS, Test System: CHO CELLS, Metabolic Activation: RAT, LIVER, S-9, AROCLOR 1254", "result": "inactive; negative"}, {"measurement": "mutagenic call", "setting": "Test System: AMES SALMONELLA TYPHIMURIUM, Strain/Indicator: TA97, Metabolic Activation: HAMSTER, LIVER, S-9, AROCLOR 1254 (30%), Method: PREINCUBATION", "result": "inactive; negative"}, {"measurement": "mutagenic call", "setting": "Test System: AMES SALMONELLA TYPHIMURIUM, Strain/Indicator: TA97, Metabolic Activation: NONE, Method: PREINCUBATION", "result": "inactive; negative"}, {"measurement": "mutagenic call", "setting": "Test System: AMES SALMONELLA TYPHIMURIUM, Strain/Indicator: TA97, Metabolic Activation: NONE, Method: STANDARD PLATE", "result": "inactive; negative"}, {"measurement": "mutagenic call", "setting": "Test System: AMES SALMONELLA TYPHIMURIUM, Strain/Indicator: TA97, Metabolic Activation: RAT, LIVER, S-9, AROCLOR 1254 (30%), Method: PREINCUBATION", "result": "inactive; negative"}, {"measurement": "mutagenic call", "setting": "Test System: AMES SALMONELLA TYPHIMURIUM, Strain/Indicator: TA97, Metabolic Activation: RAT, LIVER, S-9, PHENOBARBITAL AND ALPHA-NAPHTHOFLAVONE, Method: STANDARD PLATE", "result": "inactive; negative"}, {"measurement": "mutagenic call", "setting": "Test System: AMES SALMONELLA TYPHIMURIUM, Strain/Indicator: TA98, Metabolic Activation: HAMSTER, LIVER, S-9, AROCLOR 1254 (30%), Method: PREINCUBATION", "result": "inactive; negative"}, {"measurement": "mutagenic call", "setting": "Test System: AMES SALMONELLA TYPHIMURIUM, Strain/Indicator: TA98, Metabolic Activation: NONE, Method: PREINCUBATION", "result": "inactive; negative"}, {"measurement": "mutagenic call", "setting": "Test System: AMES SALMONELLA TYPHIMURIUM, Strain/Indicator: TA98, Metabolic Activation: NONE, Method: SPIRAL ASSAY", "result": "inactive; negative"}, {"measurement": "mutagenic call", "setting": "Test System: AMES SALMONELLA TYPHIMURIUM, Strain/Indicator: TA98, Metabolic Activation: NONE, Method: STANDARD PLATE", "result": "inactive; negative"}, {"measurement": "mutagenic call", "setting": "Test System: AMES SALMONELLA TYPHIMURIUM, Strain/Indicator: TA98, Metabolic Activation: RAT, LIVER, S-9, AROCLOR 1254 (30%), Method: PREINCUBATION", "result": "inactive; negative"}, {"measurement": "mutagenic call", "setting": "Test System: AMES SALMONELLA TYPHIMURIUM, Strain/Indicator: TA98, Metabolic Activation: RAT, LIVER, S-9, AROCLOR 1254, Method: SPIRAL ASSAY", "result": "inactive; negative"}, {"measurement": "mutagenic call", "setting": "Test System: AMES SALMONELLA TYPHIMURIUM, Strain/Indicator: TA98, Metabolic Activation: RAT, LIVER, S-9, AROCLOR 1254, Method: STANDARD PLATE", "result": "inactive; negative"}, {"measurement": "mutagenic call", "setting": "Test System: AMES SALMONELLA TYPHIMURIUM, Strain/Indicator: TA98, Metabolic Activation: RAT, LIVER, S-9, PHENOBARBITAL AND ALPHA-NAPHTHOFLAVONE, Method: STANDARD PLATE", "result": "inactive; negative"}, {"measurement": "mutagenic call", "setting": "Test System: AMES SALMONELLA TYPHIMURIUM, Strain/Indicator: TA100, Metabolic Activation: HAMSTER, LIVER, S-9, AROCLOR 1254 (30%), Method: PREINCUBATION", "result": "inactive; negative"}, {"measurement": "mutagenic call", "setting": "Test System: AMES SALMONELLA TYPHIMURIUM, Strain/Indicator: TA100, Metabolic Activation: NONE, Method: PREINCUBATION", "result": "inactive; negative"}, {"measurement": "mutagenic call", "setting": "Test System: AMES SALMONELLA TYPHIMURIUM, Strain/Indicator: TA100, Metabolic Activation: NONE, Method: SPIRAL ASSAY", "result": "inactive; negative"}, {"measurement": "mutagenic call", "setting": "Test System: AMES SALMONELLA TYPHIMURIUM, Strain/Indicator: TA100, Metabolic Activation: RAT, LIVER, S-9, AROCLOR 1254 (30%), Method: PREINCUBATION", "result": "inactive; negative"}, {"measurement": "mutagenic call", "setting": "Test System: AMES SALMONELLA TYPHIMURIUM, Strain/Indicator: TA100, Metabolic Activation: RAT, LIVER, S-9, AROCLOR 1254, Method: SPIRAL ASSAY", "result": "inactive; negative"}, {"measurement": "mutagenic call", "setting": "Test System: AMES SALMONELLA TYPHIMURIUM, Strain/Indicator: TA100, Metabolic Activation: RAT, LIVER, S-9, AROCLOR 1254, Method: STANDARD PLATE", "result": "inactive; negative"}, {"measurement": "mutagenic call", "setting": "Test System: AMES SALMONELLA TYPHIMURIUM, Strain/Indicator: TA100, Metabolic Activation: RAT, LIVER, S-9, PHENOBARBITAL AND ALPHA-NAPHTHOFLAVONE, Method: STANDARD PLATE", "result": "inactive; negative"}, {"measurement": "mutagenic call", "setting": "Test System: AMES SALMONELLA TYPHIMURIUM, Strain/Indicator: TA102, Metabolic Activation: NONE, Method: STANDARD PLATE", "result": "inactive; negative"}, {"measurement": "mutagenic call", "setting": "Test System: AMES SALMONELLA TYPHIMURIUM, Strain/Indicator: TA1535, Metabolic Activation: HAMSTER, LIVER, S-9, AROCLOR 1254 (30%), Method: PREINCUBATION", "result": "active; positive"}, {"measurement": "mutagenic call", "setting": "Test System: AMES SALMONELLA TYPHIMURIUM, Strain/Indicator: TA1535, Metabolic Activation: NONE, Method: PREINCUBATION", "result": "active; positive"}, {"measurement": "mutagenic call", "setting": "Test System: AMES SALMONELLA TYPHIMURIUM, Strain/Indicator: TA1535, Metabolic Activation: NONE, Method: SPIRAL ASSAY", "result": "active; positive"}, {"measurement": "mutagenic call", "setting": "Test System: AMES SALMONELLA TYPHIMURIUM, Strain/Indicator: TA1535, Metabolic Activation: NONE, Method: STANDARD PLATE", "result": "active; positive"}, {"measurement": "mutagenic call", "setting": "Test System: AMES SALMONELLA TYPHIMURIUM, Strain/Indicator: TA1535, Metabolic Activation: RAT, LIVER, S-9, AROCLOR 1254 (30%), Method: PREINCUBATION", "result": "active; positive"}, {"measurement": "mutagenic call", "setting": "Test System: AMES SALMONELLA TYPHIMURIUM, Strain/Indicator: TA1535, Metabolic Activation: RAT, LIVER, S-9, AROCLOR 1254, Method: SPIRAL ASSAY", "result": "active; positive"}, {"measurement": "mutagenic call", "setting": "Test System: AMES SALMONELLA TYPHIMURIUM, Strain/Indicator: TA1535, Metabolic Activation: RAT, LIVER, S-9, AROCLOR 1254, Method: STANDARD PLATE", "result": "active; positive"}, {"measurement": "mutagenic call", "setting": "Test System: AMES SALMONELLA TYPHIMURIUM, Strain/Indicator: TA1535, Metabolic Activation: RAT, LIVER, S-9, PHENOBARBITAL AND ALPHA-NAPHTHOFLAVONE, Method: STANDARD PLATE", "result": "active; positive"}, {"measurement": "mutagenic call", "setting": "Test System: AMES SALMONELLA TYPHIMURIUM, Strain/Indicator: TA1537, Metabolic Activation: NONE, Method: SPIRAL ASSAY", "result": "inactive; negative"}, {"measurement": "mutagenic call", "setting": "Test System: AMES SALMONELLA TYPHIMURIUM, Strain/Indicator: TA1537, Metabolic Activation: NONE, Method: STANDARD PLATE", "result": "inactive; negative"}, {"measurement": "mutagenic call", "setting": "Test System: AMES SALMONELLA TYPHIMURIUM, Strain/Indicator: TA1537, Metabolic Activation: RAT, LIVER, S-9, AROCLOR 1254, Method: SPIRAL ASSAY", "result": "inactive; negative"}, {"measurement": "mutagenic call", "setting": "Test System: AMES SALMONELLA TYPHIMURIUM, Strain/Indicator: TA1537, Metabolic Activation: RAT, LIVER, S-9, AROCLOR 1254, Method: STANDARD PLATE", "result": "inactive; negative"}, {"measurement": "mutagenic call", "setting": "Test System: CHINESE HAMSTER V-79, Strain/Indicator: V-79/6-THIOGUANINE, Metabolic Activation: NONE, Method: SUSPENSION/PLATE", "result": "active; positive"}, {"measurement": "mutagenic call", "setting": "Test System: CHINESE HAMSTER V-79, Strain/Indicator: V-79/6-THIOGUANINE, Metabolic Activation: RAT, LIVER, HEPATOCYTES, Method: SUSPENSION/PLATE", "result": "active; positive"}, {"measurement": "mutagenic call", "setting": "Test System: E. COLI, Strain/Indicator: WP2 (HCR), Metabolic Activation: NONE, Method: STANDARD PLATE", "result": "inactive; negative"}, {"measurement": "mutagenic call", "setting": "Test System: UDS RAT HEPATOCYTES, Strain/Indicator: THY INCORP, Metabolic Activation: NONE, Method: AUTORADIOGRAPHY (SERUM-FREE MEDIA)", "result": "inactive; negative"}]}, {"smiles": "O=CN(O)c1ccc(Oc2ccc(Cl)cc2)cc1", "values": [{"measurement": "mutagenic call", "setting": "Test System: AMES SALMONELLA TYPHIMURIUM, Strain/Indicator: TA100, Metabolic Activation: NONE, Method: STANDARD PLATE", "result": "inactive; negative"}, {"measurement": "mutagenic call", "setting": "Test System: AMES SALMONELLA TYPHIMURIUM, Strain/Indicator: TA100, Metabolic Activation: RAT, LIVER, S-9, KANECLOR 500, Method: STANDARD PLATE", "result": "active; positive"}]}, {"smiles": "CC(=O)N(CC(O)CO)c1c(I)c(C(=O)NCCO)c(I)c(C(=O)NCC(O)CO)c1I", "note": "(stereo unspecified)", "values": [{"measurement": "mutagenic call", "setting": "Test System: AMES SALMONELLA TYPHIMURIUM, Strain/Indicator: TA98, Metabolic Activation: NONE", "result": "inactive; negative"}, {"measurement": "mutagenic call", "setting": "Test System: AMES SALMONELLA TYPHIMURIUM, Strain/Indicator: TA98, Metabolic Activation: RAT, LIVER, S-9", "result": "inactive; negative"}, {"measurement": "mutagenic call", "setting": "Test System: AMES SALMONELLA TYPHIMURIUM, Strain/Indicator: TA100, Metabolic Activation: NONE", "result": "inactive; negative"}, {"measurement": "mutagenic call", "setting": "Test System: AMES SALMONELLA TYPHIMURIUM, Strain/Indicator: TA100, Metabolic Activation: RAT, LIVER, S-9", "result": "inactive; negative"}, {"measurement": "mutagenic call", "setting": "Test System: AMES SALMONELLA TYPHIMURIUM, Strain/Indicator: TA1535, Metabolic Activation: NONE", "result": "inactive; negative"}, {"measurement": "mutagenic call", "setting": "Test System: AMES SALMONELLA TYPHIMURIUM, Strain/Indicator: TA1535, Metabolic Activation: RAT, LIVER, S-9", "result": "inactive; negative"}, {"measurement": "mutagenic call", "setting": "Test System: AMES SALMONELLA TYPHIMURIUM, Strain/Indicator: TA1537, Metabolic Activation: NONE", "result": "inactive; negative"}, {"measurement": "mutagenic call", "setting": "Test System: AMES SALMONELLA TYPHIMURIUM, Strain/Indicator: TA1537, Metabolic Activation: RAT, LIVER, S-9", "result": "inactive; negative"}, {"measurement": "mutagenic call", "setting": "Test System: E.COLI, Strain/Indicator: WP2 UVRA, Metabolic Activation: NONE", "result": "inactive; negative"}, {"measurement": "mutagenic call", "setting": "Test System: E.COLI, Strain/Indicator: WP2 UVRA, Metabolic Activation: RAT, LIVER, S-9", "result": "inactive; negative"}]}]}
